Measured values from ChEMBL document CHEMBL1121575, “Synthesis and biological activity of some 15-oxaestranes” (J Med Chem, 1980).

Columns and labels:
[1] = target: T1, Estrogen receptor (Rattus norvegicus) (UniProt P06211+Q62986); experiment: Oral estrogenic activity in uterotropic assay in rats at 20-200 ng dose; type: functional
[2] = target: T1, Estrogen receptor (Rattus norvegicus); experiment: Oral estrogenic activity in uterotropic assay in rats at 40-400 ng dose; type: functional
[3] = target: T1, Estrogen receptor (Rattus norvegicus)
Description: Oral estrogenic activity in uterotropic assay in rats at 400-4000ng dose

[4] = target: T1, Estrogen receptor (Rattus norvegicus); remark: listed apart in the source
Description: Oral estrogenic activity in uterotropic assay in rats at 100-1000 ng dose

[5] = target: T1, Estrogen receptor (Rattus norvegicus); experiment: Oral estrogenic activity in uterotropic assay in rats at 40-1000 ng dose; type: functional

## CC12CCC3c4ccc(O)cc4CCC3C1OC[C@@H]2O (stereo not given in full)
[1]
  Weight: -7.8 mg

## CC12CCC3c4ccc(O)cc4CCC3C1OCC2=O (stereo not given)
[2]
  Weight: -32.1 mg

## C[C@]12CC[C@@H]3c4ccc(O)cc4CC[C@H]3[C@@H]1CCC2=O
[3]
  Weight: -120 mg

## C#C[C@]1(O)COC2C3CCc4cc(OC)ccc4C3CCC21C (stereo not given in full)
[4]
  Weight: -23.9 mg

## CC12CCC3c4ccc(OC5CCCC5)cc4CCC3C1OCC2=O (stereo not given)
[5]
  Weight: -52.2 mg
